Measured values: patent US20110178396A1, “Nicotinamide Derivatives” (CRC FOR BIOMEDICAL IMAGING DEVELOPMENT LTD., priority 2008, published 2011)

Test system: B16F0 melanoma tumour
Experiment: Biodistribution in B16 melanoma bearing mice
Format: in vivo, C57BL/6J mice
Conditions: for Organ distribution Intestine / Organ distribution Liver / Organ distribution Spleen / Organ distribution Stomach / Organ distribution Thyroid / Organ distribution Tumour: B16F0 tumour, mean ± S.D.
Experimental: Animal experiments were performed in compliance with the NHMRC Australian Code of Practice for the care and use of animals for scientific purposes. Female C57BL/6J black and BALB/c nude albino mice of 5 weeks age were obtained from the Animal Resources Centre, Western Australia. B16F0 murine melanoma cells were originally obtained from European Collection of Cell Cultures (UK) and A375 human amelanotic melanoma cells were originally obtained from American Type Culture Collection (USA). Before transplantation, B16F0 and A375 melanoma cells were maintained as a monolayer in RPMI culture medium supplemented with 10% foetal calf serum and antibiotics and passaged with trypsinisation. Early passages were frozen and stored in liquid nitrogen. Cells were passaged to P=10 and then discarded. Frozen aliquots were grown in a monolayer culture to between 80-95% confluence and for transplantation were trypsinised and washed with Ca^2+ and Mg^2+ free phosphate buffered saline (PBS). For inoculation, B16F0 melanoma cells were resuspended in Ca^2+ and Mg^2+ free PBS at 3 or 5×10^6 viable cells per ml and 0.1 ml was subcutaneously injected at the left flank of 6-7 weeks old C57BL/6J mice. Eleven days later, tumours could be palpated in >98% of inoculated animals. A375 human melanoma cells were resuspended at 1×10^7 viablecells per ml and 0.1 ml was injected subcutaneously at the left flank of 6 weeks old BALB/c nude mice and 25-26 days later tumours could be palpated with ˜60% of inoculated animals developing tumours.
Eleven days (B16F0 melanoma) and 25 days (A375 human melanoma) after tumour transplantation, the [^18F]nicotinamides (0.5-1.5 MBq, 100 μl) and [^123I]nicotinamide (0.37-0.74 MBq, 100 μl) derivatives were injected intravenously via the tail vein into mice (15-18 g). Time points of 1, 3, 6, 24, 48, 72 h after injection were chosen for determining the distribution of each compound in various organs and tissues for the iodine-123 labelled compounds and between 15 min and 6 hours (e.g. 15 min, 30 min, 1 h, 2 h, 4 h or 6 h) were chosen for the ^18F-labelled compounds. At defined times post injection, groups of mice (n=5) were weighed, sacrificed by CO2 administration followed by cervical dislocation and dissected. Selected organs were weighed and their radioactivity measured with a γ-counter. The remaining activity in the carcass was also determined in order to obtain the total activity in the mouse at defined time points. The fraction of injected activity (% ID) in the organ was calculated by comparison with suitable dilutions of the injected dose. Then, the radioactivity concentration in the organ (% ID/g) was found by dividing the % ID for each organ by the weight of the organ.

[1] = B16 melanoma bearing mice, 15 min
[2] = B16 tumour, C57BL/6J mice, 1 h, mean ± SD, n = 5
[3] = B16 tumour, C57BL/6J mice, 6 h, mean ± SD, n = 5
[4] = B16 tumour, C57BL/6J mice, 24 h, mean ± SD, n = 5

What does the source list for `CCCCN(C)CCCCNC(=O)c1ccc(F)nc1` [[^18F]MEL4, 6-Fluoro-N-[4-(butyl(methyl)amino)butyl]nicotinamide]?
uptake BLOOD [1]: 0.68 % ID/g; uptake BONE [1]: 3.89 % ID/g; uptake BRAIN [1]: 0.84 % ID/g; uptake EYES [1]: 11.27 % ID/g; uptake GIT [1]: 8.23 % ID/g; uptake HEART [1]: 2.49 % ID/g; uptake KIDNEY [1]: 15.88 % ID/g; uptake LIVER [1]: 30.69 % ID/g; uptake LUNGS [1]: 12.06 % ID/g; uptake MUSCLE [1]: 2.83 % ID/g; uptake SKIN [1]: 2.53 % ID/g; uptake SPLEEN [1]: 11.19 % ID/g; uptake STOMACH [1]: 8.52 % ID/g; uptake THYROID [1]: 10.16 % ID/g; uptake TUMOUR [1]: 4.01 % ID/g; uptake BLOOD (B16 melanoma bearing mice, 1 h): 0.32 % ID/g; uptake BONE (B16 melanoma bearing mice, 1 h): 2.03 % ID/g; uptake BRAIN (B16 melanoma bearing mice, 1 h): 0.75 % ID/g; uptake EYES (B16 melanoma bearing mice, 1 h): 12.65 % ID/g; uptake GIT (B16 melanoma bearing mice, 1 h): 5.78 % ID/g; uptake HEART (B16 melanoma bearing mice, 1 h): 0.98 % ID/g; uptake KIDNEY (B16 melanoma bearing mice, 1 h): 4.64 % ID/g; uptake LIVER (B16 melanoma bearing mice, 1 h): 36.76 % ID/g; uptake LUNGS (B16 melanoma bearing mice, 1 h): 4.49 % ID/g; uptake MUSCLE (B16 melanoma bearing mice, 1 h): 1.00 % ID/g; uptake SKIN (B16 melanoma bearing mice, 1 h): 1.61 % ID/g; uptake SPLEEN (B16 melanoma bearing mice, 1 h): 7.38 % ID/g; uptake STOMACH (B16 melanoma bearing mice, 1 h): 3.31 % ID/g; uptake THYROID (B16 melanoma bearing mice, 1 h): 5.37 % ID/g; uptake TUMOUR (B16 melanoma bearing mice, 1 h): 4.79 % ID/g; uptake BLOOD (B16 melanoma bearing mice, 3 h): 0.21 % ID/g; uptake BONE (B16 melanoma bearing mice, 3 h): 1.41 % ID/g; uptake BRAIN (B16 melanoma bearing mice, 3 h): 0.57 % ID/g; uptake EYES (B16 melanoma bearing mice, 3 h): 14.28 % ID/g; uptake GIT (B16 melanoma bearing mice, 3 h): 4.18 % ID/g; uptake HEART (B16 melanoma bearing mice, 3 h): 0.71 % ID/g; uptake KIDNEY (B16 melanoma bearing mice, 3 h): 2.89 % ID/g; uptake LIVER (B16 melanoma bearing mice, 3 h): 32.81 % ID/g; uptake LUNGS (B16 melanoma bearing mice, 3 h): 3.08 % ID/g; uptake MUSCLE (B16 melanoma bearing mice, 3 h): 0.53 % ID/g; uptake SKIN (B16 melanoma bearing mice, 3 h): 1.09 % ID/g; uptake SPLEEN (B16 melanoma bearing mice, 3 h): 5.31 % ID/g; uptake STOMACH (B16 melanoma bearing mice, 3 h): 2.36 % ID/g; uptake THYROID (B16 melanoma bearing mice, 3 h): 2.92 % ID/g; uptake TUMOUR (B16 melanoma bearing mice, 3 h): 5.31 % ID/g; uptake BLOOD (B16 melanoma bearing mice, 6 h): 0.14 % ID/g; uptake BONE (B16 melanoma bearing mice, 6 h): 1.03 % ID/g; uptake BRAIN (B16 melanoma bearing mice, 6 h): 0.37 % ID/g; uptake EYES (B16 melanoma bearing mice, 6 h): 15.75 % ID/g; uptake GIT (B16 melanoma bearing mice, 6 h): 3.08 % ID/g; uptake HEART (B16 melanoma bearing mice, 6 h): 0.52 % ID/g; uptake KIDNEY (B16 melanoma bearing mice, 6 h): 1.80 % ID/g; uptake LIVER (B16 melanoma bearing mice, 6 h): 26.41 % ID/g; uptake LUNGS (B16 melanoma bearing mice, 6 h): 2.23 % ID/g; uptake MUSCLE (B16 melanoma bearing mice, 6 h): 0.36 % ID/g; uptake SKIN (B16 melanoma bearing mice, 6 h): 0.89 % ID/g; uptake SPLEEN (B16 melanoma bearing mice, 6 h): 4.11 % ID/g; uptake STOMACH (B16 melanoma bearing mice, 6 h): 1.79 % ID/g; uptake THYROID (B16 melanoma bearing mice, 6 h): 1.98 % ID/g; uptake TUMOUR (B16 melanoma bearing mice, 6 h): 5.29 % ID/g

For `CCN(CC)CCNC(=O)c1ccc(I)nc1` [[^123I]14, N-(2-(Diethylamino)ethyl)-6-iodonicotinamide], which “Organ distribution Intestine” value (C57BL/6J mice, 1 h, n = 5) is on record?
Its value is 10 ± 1 % ID/organ.

What about the “Organ distribution Liver” value (C57BL/6J mice, 1 h, n = 5) of the same compound?
Its value is 2.7 ± 0.7 % ID/organ.

And the “Organ distribution Spleen” value (C57BL/6J mice, 1 h, n = 5)?
The value was 0.31 ± 0.07 % ID/organ.

What about the “Organ distribution Stomach” value (C57BL/6J mice, 1 h, n = 5) of the same compound?
The value was 9 ± 1 % ID/organ.

What about the “Organ distribution Thyroid” value (C57BL/6J mice, 1 h, n = 5) of the same compound?
Its value is 1.2 ± 0.7 % ID/organ.

What about the “Organ distribution Tumour” value (C57BL/6J mice, 1 h, n = 5) of the same compound?
The value was 1.8 ± 0.4 % ID/organ.

And the “Organ distribution Intestine” value (C57BL/6J mice, 6 h, n = 5)?
The value was 5 ± 1 % ID/organ.

What about the “Organ distribution Liver” value (C57BL/6J mice, 6 h, n = 5) of the same compound?
Its value is 1.3 ± 0.4 % ID/organ.

What about the “Organ distribution Spleen” value (C57BL/6J mice, 6 h, n = 5) of the same compound?
The value was 0.17 ± 0.05 % ID/organ.

What about the “Organ distribution Stomach” value (C57BL/6J mice, 6 h, n = 5) of the same compound?
The value was 7 ± 2 % ID/organ.

And the “Organ distribution Thyroid” value (C57BL/6J mice, 6 h, n = 5)?
Its value is 3.3 ± 0.8 % ID/organ.

And the “Organ distribution Tumour” value (C57BL/6J mice, 6 h, n = 5)?
The value was 1.4 ± 0.8 % ID/organ.

And the “Organ distribution Intestine” value (C57BL/6J mice, 24 h, n = 5)?
Its value is 0.35 ± 0.03 % ID/organ.

What about the “Organ distribution Liver” value (C57BL/6J mice, 24 h, n = 5) of the same compound?
Its value is 0.19 ± 0.04 % ID/organ.

What about the “Organ distribution Spleen” value (C57BL/6J mice, 24 h, n = 5) of the same compound?
Its value is 0.01 ± 0.00 % ID/organ.

What about the “Organ distribution Stomach” value (C57BL/6J mice, 24 h, n = 5) of the same compound?
The value was 0.4 ± 0.1 % ID/organ.

And the “Organ distribution Thyroid” value (C57BL/6J mice, 24 h, n = 5)?
The value was 6.5 ± 2.8 % ID/organ.

And the “Organ distribution Tumour” value (C57BL/6J mice, 24 h, n = 5)?
Its value is 0.11 ± 0.06 % ID/organ.

And the “tumour standardized uptake value (SUVt)” value (B16 tumour, C57BL/6J mice, 1 h)?
Its value is 1.2 ± 0.1.

And the “Uptake Lung” value [2]?
Its value is 4.8 ± 0.4 % ID/g.

What about the “uptake BLOOD” value [2] of the same compound?
Its value is 6.9 ± 0.6 % ID/g.

What about the “uptake BRAIN” value [2] of the same compound?
Its value is 0.36 ± 0.05 % ID/g.

What about the “uptake HEART” value [2] of the same compound?
The value was 2.3 ± 0.2 % ID/g.

And the “uptake KIDNEY” value [2]?
Its value is 4.2 ± 0.6 % ID/g.

And the “uptake LIVER” value [2]?
Its value is 3.1 ± 0.6 % ID/g.

What about the “uptake TUMOUR” value [2] of the same compound?
Its value is 3.8 ± 0.2 % ID/g.

And the “tumour standardized uptake value (SUVt)” value (B16 tumour, C57BL/6J mice, 6 h)?
Its value is 1.0 ± 0.1.

And the “Uptake Lung” value [3]?
Its value is 2.6 ± 0.8 % ID/g.

What about the “uptake BLOOD” value [3] of the same compound?
Its value is 3.6 ± 1.0 % ID/g.

And the “uptake BRAIN” value [3]?
The value was 0.14 ± 0.04 % ID/g.

What about the “uptake HEART” value [3] of the same compound?
Its value is 1.1 ± 0.3 % ID/g.

What about the “uptake KIDNEY” value [3] of the same compound?
The value was 2.4 ± 0.7 % ID/g.

What about the “uptake LIVER” value [3] of the same compound?
Its value is 1.4 ± 0.5 % ID/g.

What about the “uptake TUMOUR” value [3] of the same compound?
The value was 2.3 ± 0.5 % ID/g.

And the “tumour standardized uptake value (SUVt)” value (B16 tumour, C57BL/6J mice, 24 h)?
Its value is 0.5 ± 0.2.

What about the “Uptake Lung” value [4] of the same compound?
Its value is 0.2 ± 0.1 % ID/g.

What about the “uptake BLOOD” value [4] of the same compound?
The value was 0.25 ± 0.12 % ID/g.

And the “uptake BRAIN” value [4]?
The value was 0.02 % ID/g.

What about the “uptake HEART” value [4] of the same compound?
Its value is 0.10 ± 0.05 % ID/g.

And the “uptake KIDNEY” value [4]?
The value was 0.18 ± 0.05 % ID/g.

What about the “uptake LIVER” value [4] of the same compound?
Its value is 0.20 ± 0.04 % ID/g.

What about the “uptake TUMOUR” value [4] of the same compound?
Its value is 0.26 ± 0.14 % ID/g.
